Where two headings read alike, the source gives them in different places.
Legend:
Format in all cases: in vivo
[1] = tested on: barnyardgrass (Echinochloa crus-galli); assay: Test B pre-/postemergence plant response; settings: for pest or weed control at 500 g/ha: 500 g ai/ha
Procedure, shortened: (§1)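 Steps: plant seeds in loam soil–sand mix; spray soil preemergence, and in parallel spray 2–10 cm one- to two-leaf plants postemergence; hold ~10 days in greenhouse; visually rate injury against untreated controls (0 = no effect, 100 = complete control).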

corn (Zea mays) = assay: Test B pre-/postemergence plant response; settings: Zea mays, post-emergence, 240 h
Procedure, shortened: as §1

[2] = tested on: giant foxtail (Setaria faberii); assay: Test B pre-/postemergence plant response; settings: for pest or weed control at 500 g/ha: 500 g ai/ha
Procedure, shortened: as §1

[3] = tested on: pigweed (Amaranthus retroflexus); assay: Test B pre-/postemergence plant response; settings: for pest or weed control at 500 g/ha: 500 g ai/ha
Procedure, shortened: as §1

[4] = tested on: wheat (Triticum aestivum); assay: Test B pre-/postemergence plant response; settings: Triticum aestivum, post-emergence, 240 h, read-out: Plant response rating, Wheat
Procedure, shortened: as §1

[5] = tested on: barnyardgrass (Echinochloa crus-galli); assay: Test D pre-/postemergence plant response; settings: Echinochloa crus-galli, pre-emergence, Preemergence
Procedure, shortened: (§2)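 Test chemicals were formulated in a non-phytotoxic solvent mixture containing surfactant and applied either preemergence to seeds in loam–sand soil or postemergence to plants 2 to 18 cm tall (1- to 4-leaf stage). Response was rated visually against controls after 13 to 15 days, from 0 (none) to 100 (complete control).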

[6] = tested on: blackgrass (Alopecurus myosuroides); assay: Test D pre-/postemergence plant response; settings: Alopecurus myosuroides, pre-emergence, Preemergence
Procedure, shortened: as §2

[7] = tested on: giant foxtail (Setaria faberii); assay: Test D pre-/postemergence plant response; settings: Setaria faberi, pre-emergence, Preemergence
Procedure, shortened: as §2

[8] = tested on: johnsongrass (Sorghum halepense); assay: Test D pre-/postemergence plant response; settings: Sorghum halepense, pre-emergence, Preemergence
Procedure, shortened: as §2

[9] = tested on: large (Lg) crabgrass (Digitaria sanguinalis); assay: Test D pre-/postemergence plant response; settings: Digitaria sanguinalis, pre-emergence, Preemergence
Procedure, shortened: as §2

[10] = tested on: morningglory (Ipomoea coccinea); assay: Test D pre-/postemergence plant response; settings: Ipomoea, pre-emergence, Preemergence
Procedure, shortened: as §2

[11] = tested on: pigweed (Amaranthus retroflexus); assay: Test D pre-/postemergence plant response; settings: Amaranthus retroflexus, pre-emergence, Preemergence
Procedure, shortened: as §2

[12] = tested on: ragweed (common ragweed, Ambrosia elatior); assay: Test D pre-/postemergence plant response; settings: Ambrosia artemisiifolia, pre-emergence, Preemergence
Procedure, shortened: as §2

soybean (Glycine max) = assay: Test D pre-/postemergence plant response; settings: Glycine max, pre-emergence, Preemergence
Procedure, shortened: as §2

[13] = tested on: waterhemp (common waterhemp, Amaranthus rudis); assay: Test D pre-/postemergence plant response; settings: Amaranthus tuberculatus, pre-emergence, Preemergence
Procedure, shortened: as §2

[14] = tested on: yellow nutsedge (Cyperus esculentus); assay: Test D pre-/postemergence plant response; settings: Cyperus, pre-emergence, Preemergence
Procedure, shortened: as §2

[15] = Preemergence, 125 g ai/ha, 0 to 100 scale (0 no effect, 100 complete control)
[16] = 125 g ai/ha, postemergence, 0 to 100 scale, 0 no effect, 100 complete control
[17] = Postemergence, 500 g ai/ha, 0 to 100 scale (0 no effect, 100 complete control)

## N#Cc1cccc(Oc2ncc(Cl)cn2)c1-c1cc(C(F)(F)F)ccn1 [Compound 158, 5-chloro-2-[3-cyano-2-[4-(trifluoromethyl)-2-pyridinyl]phenoxy]pyrimidine]
[1]; Echinochloa crus-galli, post-emergence, 240 h, 125 g ai/ha, postemergence, 0 to 100 scale, 0 no effect, 100 complete control, read-out: Plant response rating, Barnyardgrass
  pest or weed control at 125 g/ha: 60%
[1]; Echinochloa crus-galli, post-emergence, 240 h, Postemergence, 0 to 100 scale (0 no effect, 100 complete control), read-out: Plant response rating, Barnyardgrass
  pest or weed control at 500 g/ha: 100%
[1]; Echinochloa crus-galli, pre-emergence, 240 h, Preemergence, 0 to 100 scale where 0 is no effect and 100 is complete control, read-out: Plant response rating, Barnyardgrass
  pest or weed control at 500 g/ha: 100%
[1]; [15]
  Barnyardgrass plant response rating: 90
Corn (Zea mays); [16]
  Corn plant response rating (crop injury, 0 = no effect, 100 = complete kill) at 125 g/ha: 30%
Corn (Zea mays); [17]
  Corn plant response rating (crop injury, 0 = no effect, 100 = complete kill) at 500 g/ha: 90%
[2]; [15]
  Foxtail, Giant plant response rating: 90
[2]; Setaria faberi, post-emergence, 240 h, 125 g ai/ha, postemergence, 0 to 100 scale, 0 no effect, 100 complete control, read-out: Plant response rating, Foxtail, Giant
  pest or weed control at 125 g/ha: 50%
[2]; Setaria faberi, post-emergence, 240 h, Postemergence, 0 to 100 scale (0 no effect, 100 complete control), read-out: Plant response rating, Foxtail, Giant
  pest or weed control at 500 g/ha: 100%
[2]; Setaria faberi, pre-emergence, 240 h, Preemergence, 0 to 100 scale where 0 is no effect and 100 is complete control, read-out: Plant response rating, Foxtail, Giant
  pest or weed control at 500 g/ha: 100%
[3]; Amaranthus retroflexus, post-emergence, 240 h, 125 g ai/ha, postemergence, 0 to 100 scale, 0 no effect, 100 complete control, read-out: Plant response rating, Pigweed
  pest or weed control at 125 g/ha: 80%
[3]; Amaranthus retroflexus, post-emergence, 240 h, Postemergence, 0 to 100 scale (0 no effect, 100 complete control), read-out: Plant response rating, Pigweed
  pest or weed control at 500 g/ha: 100%
[3]; Amaranthus retroflexus, pre-emergence, 240 h, Preemergence, 0 to 100 scale where 0 is no effect and 100 is complete control, read-out: Plant response rating, Pigweed
  pest or weed control at 500 g/ha: 100%
[3]; [15]
  Pigweed plant response rating: 90
[4]; [16]
  plant injury at 125 g/ha: 20%
[4]; [17]
  plant injury at 500 g/ha: 70%
[5]; 125 g ai/ha, read-out: Plant response rating (scale 0 to 100), Barnyardgrass
  pest or weed control at 125 g/ha: 20%
[5]; 16 g ai/ha, scale 0 to 100 (0 no effect, 100 complete control), read-out: Plant response rating, Barnyardgrass
  pest or weed control at 16 g/ha: 0%
[5]; 31 g ai/ha, scale 0 to 100 (0 no effect, 100 complete control), read-out: Plant response rating, Barnyardgrass
  pest or weed control at 31 g/ha: 5%
[5]; 62 g ai/ha, scale 0 to 100 (0 no effect, 100 complete control), read-out: Plant response rating, Barnyardgrass
  pest or weed control at 62 g/ha: 35%
[6]; 125 g ai/ha, read-out: Plant response rating (scale 0 to 100), Blackgrass
  pest or weed control at 125 g/ha: 90%
[6]; 16 g ai/ha, scale 0 to 100 (0 no effect, 100 complete control), read-out: Plant response rating, Blackgrass
  pest or weed control at 16 g/ha: 0%
[6]; 31 g ai/ha, scale 0 to 100 (0 no effect, 100 complete control), read-out: Plant response rating, Blackgrass
  pest or weed control at 31 g/ha: 15%
[6]; 62 g ai/ha, scale 0 to 100 (0 no effect, 100 complete control), read-out: Plant response rating, Blackgrass
  pest or weed control at 62 g/ha: 50%
[7]; 125 g ai/ha, read-out: Plant response rating (scale 0 to 100), Foxtail, Giant
  pest or weed control at 125 g/ha: 100%
[7]; 16 g ai/ha, scale 0 to 100 (0 no effect, 100 complete control), read-out: Plant response rating, Foxtail, Giant
  pest or weed control at 16 g/ha: 5%
[7]; 31 g ai/ha, scale 0 to 100 (0 no effect, 100 complete control), read-out: Plant response rating, Foxtail, Giant
  pest or weed control at 31 g/ha: 55%
[7]; 62 g ai/ha, scale 0 to 100 (0 no effect, 100 complete control), read-out: Plant response rating, Foxtail, Giant
  pest or weed control at 62 g/ha: 85%
[8]; 125 g ai/ha, read-out: Plant response rating (scale 0 to 100), Johnsongrass
  pest or weed control at 125 g/ha: 40%
[8]; 16 g ai/ha, scale 0 to 100 (0 no effect, 100 complete control), read-out: Plant response rating, Johnsongrass
  pest or weed control at 16 g/ha: 0%
[8]; 31 g ai/ha, scale 0 to 100 (0 no effect, 100 complete control), read-out: Plant response rating, Johnsongrass
  pest or weed control at 31 g/ha: 0%
[8]; 62 g ai/ha, scale 0 to 100 (0 no effect, 100 complete control), read-out: Plant response rating, Johnsongrass
  pest or weed control at 62 g/ha: 10%
[9]; 125 g ai/ha, read-out: Plant response rating (scale 0 to 100), Crabgrass, Large
  pest or weed control at 125 g/ha: 100%
[9]; 16 g ai/ha, scale 0 to 100 (0 no effect, 100 complete control), read-out: Plant response rating, Crabgrass, Large
  pest or weed control at 16 g/ha: 25%
[9]; 31 g ai/ha, scale 0 to 100 (0 no effect, 100 complete control), read-out: Plant response rating, Crabgrass, Large
  pest or weed control at 31 g/ha: 90%
[9]; 62 g ai/ha, scale 0 to 100 (0 no effect, 100 complete control), read-out: Plant response rating, Crabgrass, Large
  pest or weed control at 62 g/ha: 85%
[10]; 125 g ai/ha, read-out: Plant response rating (scale 0 to 100), Morningglory
  pest or weed control at 125 g/ha: 70%
[10]; 16 g ai/ha, scale 0 to 100 (0 no effect, 100 complete control), read-out: Plant response rating, Morningglory
  pest or weed control at 16 g/ha: 5%
[10]; 31 g ai/ha, scale 0 to 100 (0 no effect, 100 complete control), read-out: Plant response rating, Morningglory
  pest or weed control at 31 g/ha: 15%
[10]; 62 g ai/ha, scale 0 to 100 (0 no effect, 100 complete control), read-out: Plant response rating, Morningglory
  pest or weed control at 62 g/ha: 15%
[11]; 125 g ai/ha, read-out: Plant response rating (scale 0 to 100), Pigweed
  pest or weed control at 125 g/ha: 100%
[11]; 16 g ai/ha, scale 0 to 100 (0 no effect, 100 complete control), read-out: Plant response rating, Pigweed
  pest or weed control at 16 g/ha: 70%
[11]; 31 g ai/ha, scale 0 to 100 (0 no effect, 100 complete control), read-out: Plant response rating, Pigweed
  pest or weed control at 31 g/ha: 75%
[11]; 62 g ai/ha, scale 0 to 100 (0 no effect, 100 complete control), read-out: Plant response rating, Pigweed
  pest or weed control at 62 g/ha: 100%
[12]; 125 g ai/ha, read-out: Plant response rating (scale 0 to 100), Ragweed
  pest or weed control at 125 g/ha: 50%
[12]; 16 g ai/ha, scale 0 to 100 (0 no effect, 100 complete control), read-out: Plant response rating, Ragweed
  pest or weed control at 16 g/ha: 80%
[12]; 31 g ai/ha, scale 0 to 100 (0 no effect, 100 complete control), read-out: Plant response rating, Ragweed
  pest or weed control at 31 g/ha: 60%
[12]; 62 g ai/ha, scale 0 to 100 (0 no effect, 100 complete control), read-out: Plant response rating, Ragweed
  pest or weed control at 62 g/ha: 70%
Soybean (Glycine max); 125 g ai/ha, read-out: Plant response rating (scale 0 to 100), Soybean
  plant injury at 125 g/ha: 95%
Soybean (Glycine max); 16 g ai/ha, scale 0 to 100 (0 no effect, 100 complete control), read-out: Plant response rating, Soybean
  plant injury at 16 g/ha: 0%
Soybean (Glycine max); 31 g ai/ha, scale 0 to 100 (0 no effect, 100 complete control), read-out: Plant response rating, Soybean
  plant injury at 31 g/ha: 25%
Soybean (Glycine max); 62 g ai/ha, scale 0 to 100 (0 no effect, 100 complete control), read-out: Plant response rating, Soybean
  plant injury at 62 g/ha: 45%
[13]; 125 g ai/ha, read-out: Plant response rating (scale 0 to 100), Waterhemp
  pest or weed control at 125 g/ha: 100%
[13]; 16 g ai/ha, scale 0 to 100 (0 no effect, 100 complete control), read-out: Plant response rating, Waterhemp
  pest or weed control at 16 g/ha: 100%
[13]; 31 g ai/ha, scale 0 to 100 (0 no effect, 100 complete control), read-out: Plant response rating, Waterhemp
  pest or weed control at 31 g/ha: 100%
[13]; 62 g ai/ha, scale 0 to 100 (0 no effect, 100 complete control), read-out: Plant response rating, Waterhemp
  pest or weed control at 62 g/ha: 100%
[14]; 125 g ai/ha, read-out: Plant response rating (scale 0 to 100), Nutsedge, Yellow
  pest or weed control at 125 g/ha: 5%
[14]; 16 g ai/ha, scale 0 to 100 (0 no effect, 100 complete control), read-out: Plant response rating, Nutsedge, Yellow
  pest or weed control at 16 g/ha: 0%
[14]; 31 g ai/ha, scale 0 to 100 (0 no effect, 100 complete control), read-out: Plant response rating, Nutsedge, Yellow
  pest or weed control at 31 g/ha: 0%
[14]; 62 g ai/ha, scale 0 to 100 (0 no effect, 100 complete control), read-out: Plant response rating, Nutsedge, Yellow
  pest or weed control at 62 g/ha: 5%

Source: US10131652B2, “Pyrimidinyloxy benzene derivatives as herbicides” (E. I. DU PONT DE NEMOURS AND COMPANY, priority 2014, dated 2018)
